Source: ChEMBL document CHEMBL1201862, “PubChem BioAssay data set” (2004)
Active and inactive are the calls of the source.

How the values were obtained:
[1] = target: T1, DNA repair protein RAD52 homolog (Homo sapiens, UniProt P43351); format: functional, biochemical
T1 sequence (P43351 whole entry): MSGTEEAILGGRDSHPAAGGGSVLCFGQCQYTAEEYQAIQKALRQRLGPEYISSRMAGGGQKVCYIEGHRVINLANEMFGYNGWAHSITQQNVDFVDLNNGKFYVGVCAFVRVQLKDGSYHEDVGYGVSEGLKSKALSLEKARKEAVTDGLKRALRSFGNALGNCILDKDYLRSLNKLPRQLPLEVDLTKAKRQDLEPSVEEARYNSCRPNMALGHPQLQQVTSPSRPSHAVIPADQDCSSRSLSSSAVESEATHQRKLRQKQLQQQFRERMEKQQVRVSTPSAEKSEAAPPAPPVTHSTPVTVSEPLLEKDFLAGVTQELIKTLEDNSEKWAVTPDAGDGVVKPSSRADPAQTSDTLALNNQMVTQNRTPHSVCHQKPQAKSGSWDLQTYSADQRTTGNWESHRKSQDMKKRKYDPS

[2] = target: T2, Carboxy-terminal domain RNA polymerase II polypeptide A small phosphatase 1 (Homo sapiens, UniProt Q9GZU7); assay: CTDSP1 inhibitors, concentration-response, biochemical, absorbance readout, ultra-high-throughput screen actives (AID 540297); format: functional
T2 sequence (Q9GZU7 whole entry): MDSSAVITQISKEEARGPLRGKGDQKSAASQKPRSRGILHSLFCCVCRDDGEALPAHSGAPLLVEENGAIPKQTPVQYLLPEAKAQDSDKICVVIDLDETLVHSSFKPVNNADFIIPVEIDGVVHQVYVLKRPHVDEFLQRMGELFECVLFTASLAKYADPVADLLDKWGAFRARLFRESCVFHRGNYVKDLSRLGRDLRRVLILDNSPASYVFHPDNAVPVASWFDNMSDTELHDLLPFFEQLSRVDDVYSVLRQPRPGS

Genome polyprotein = Genome polyprotein (dengue virus type 2, UniProt P29990); assay: flavivirus cap methylation enzyme inhibition – biochemical, confirmation dose response, primary screen (AID 588689); format: functional
[3] = target: T3, Long-chain-fatty-acid--AMP ligase FadD28 (Mycobacterium tuberculosis, UniProt P9WQ59); assay: Fluorescence polarization aasay to screen for inhibitors that compete for the binding of FadD28 to a bisubstrate Measured in Biochemical System Using Plate Reader - 2147-01_Inhibitor_Dose_CherryPick_Activity.; format: functional, Mycobacterium tuberculosis H37Rv
T3 sequence (P9WQ59 whole entry): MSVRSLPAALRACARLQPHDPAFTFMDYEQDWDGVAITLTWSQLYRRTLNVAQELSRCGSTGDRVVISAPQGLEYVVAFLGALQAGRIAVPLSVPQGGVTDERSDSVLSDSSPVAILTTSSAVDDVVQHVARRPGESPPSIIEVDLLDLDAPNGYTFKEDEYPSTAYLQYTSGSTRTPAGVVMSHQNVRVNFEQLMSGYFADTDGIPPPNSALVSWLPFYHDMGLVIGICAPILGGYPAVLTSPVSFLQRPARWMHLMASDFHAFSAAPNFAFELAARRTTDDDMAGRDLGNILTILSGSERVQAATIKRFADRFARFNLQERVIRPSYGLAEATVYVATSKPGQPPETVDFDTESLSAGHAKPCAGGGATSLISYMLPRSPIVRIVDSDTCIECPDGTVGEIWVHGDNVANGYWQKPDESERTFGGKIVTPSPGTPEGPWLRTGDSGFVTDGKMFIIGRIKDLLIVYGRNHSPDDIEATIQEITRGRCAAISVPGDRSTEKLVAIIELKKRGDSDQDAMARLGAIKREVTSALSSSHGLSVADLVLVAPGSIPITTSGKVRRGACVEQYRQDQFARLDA

[4] = target: T4, Hepatocyte nuclear factor 4-alpha (Homo sapiens, UniProt P41235); format: functional, cell-based;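 note: biochemical luminescence-based dose-response counterscreen measuring inhibition of HNF4 dimerization, run alongside a screen for blockers of ABHD5–perilipin-5 interaction; split luciferase complementation of HNF4 fusion proteins in cell lysate measuring dimerization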
T4 sequence (P41235 whole entry): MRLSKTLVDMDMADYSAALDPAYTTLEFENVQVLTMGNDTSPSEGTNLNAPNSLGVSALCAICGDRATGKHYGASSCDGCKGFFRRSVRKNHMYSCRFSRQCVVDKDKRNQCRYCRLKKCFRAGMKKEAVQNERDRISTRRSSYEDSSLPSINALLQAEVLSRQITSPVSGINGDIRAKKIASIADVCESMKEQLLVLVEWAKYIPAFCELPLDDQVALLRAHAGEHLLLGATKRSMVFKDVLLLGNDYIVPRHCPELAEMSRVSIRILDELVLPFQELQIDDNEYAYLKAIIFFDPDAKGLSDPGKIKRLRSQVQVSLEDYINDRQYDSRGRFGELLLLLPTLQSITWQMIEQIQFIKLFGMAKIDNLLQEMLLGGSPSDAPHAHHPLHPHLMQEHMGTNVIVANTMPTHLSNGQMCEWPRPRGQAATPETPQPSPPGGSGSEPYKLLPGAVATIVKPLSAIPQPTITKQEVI

[5] = target: T5, Adenosylmethionine-8-amino-7-oxononanoate aminotransferase (Mycobacterium tuberculosis, UniProt P9WQ81); assay: Mycobacterium tuberculosis BioA enzyme inhibitor Measured in Biochemical System Using Plate Reader - 2163-02_Inhibitor_Dose_CherryPick_Activity.; format: functional, Mycobacterium tuberculosis UT205
T5 sequence (P9WQ81 whole entry): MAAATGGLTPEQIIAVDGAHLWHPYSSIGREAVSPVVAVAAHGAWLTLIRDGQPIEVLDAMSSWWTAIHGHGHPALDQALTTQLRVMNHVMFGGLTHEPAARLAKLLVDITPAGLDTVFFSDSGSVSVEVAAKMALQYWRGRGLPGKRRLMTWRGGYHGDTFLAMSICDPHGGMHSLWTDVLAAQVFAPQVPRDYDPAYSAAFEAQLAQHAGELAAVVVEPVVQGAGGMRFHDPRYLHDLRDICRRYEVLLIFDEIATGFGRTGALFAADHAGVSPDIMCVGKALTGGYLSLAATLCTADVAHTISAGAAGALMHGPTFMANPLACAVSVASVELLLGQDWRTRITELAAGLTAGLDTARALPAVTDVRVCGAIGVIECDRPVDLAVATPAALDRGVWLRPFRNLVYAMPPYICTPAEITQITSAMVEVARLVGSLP

[6] = HEK-293T viability loss after treatment – luminescence, T-cell screen hits, cytotoxicity control for TCR NF-kB inhibitor project, dose response (AID 489026); format: functional, cell-based;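 note: cells exposed to compound about 14 hours before the viability readout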
BJ [7] = assay: BJ-TERT fibroblast viability loss – cell-based, RAS-independent, luminescence, dose response (AID 1933); format: functional; settings: Homo sapiens
Protein skinhead-1 = target: T6, Protein skinhead-1 (Caenorhabditis elegans, UniProt P34707); format: functional
T6 sequence (P34707 whole entry): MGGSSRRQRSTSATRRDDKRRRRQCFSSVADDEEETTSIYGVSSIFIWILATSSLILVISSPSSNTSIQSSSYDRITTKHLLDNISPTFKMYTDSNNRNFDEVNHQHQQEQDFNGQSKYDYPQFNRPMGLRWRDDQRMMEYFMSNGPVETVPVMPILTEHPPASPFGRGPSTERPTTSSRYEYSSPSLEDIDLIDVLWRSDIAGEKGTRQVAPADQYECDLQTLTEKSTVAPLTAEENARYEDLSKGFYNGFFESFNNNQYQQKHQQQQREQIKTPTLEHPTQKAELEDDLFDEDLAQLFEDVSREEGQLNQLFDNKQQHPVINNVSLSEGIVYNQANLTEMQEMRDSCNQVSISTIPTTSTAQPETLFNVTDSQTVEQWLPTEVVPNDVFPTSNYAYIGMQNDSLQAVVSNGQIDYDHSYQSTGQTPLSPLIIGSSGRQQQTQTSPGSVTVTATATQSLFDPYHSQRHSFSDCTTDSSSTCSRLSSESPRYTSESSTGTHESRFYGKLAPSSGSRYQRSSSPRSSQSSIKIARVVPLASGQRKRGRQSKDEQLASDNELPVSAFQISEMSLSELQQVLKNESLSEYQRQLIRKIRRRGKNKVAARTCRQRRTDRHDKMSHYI

BJ [8] = assay: BJ-TERT-LT-ST fibroblast viability loss – cell-based, RAS-independent, luminescence, dose response (AID 1935); format: functional; settings: Homo sapiens;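 note: BJ fibroblasts immortalized with TERT plus LT and ST oncogenes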
BJ [9] = assay: cells; format: functional, cell-based; settings: Homo sapiens
[10] = DRD fibroblast viability loss – cell-based, non-viral oncogenic, luminescence, dose response (AID 1934); format: functional; settings: Homo sapiens
Coagulation factor XII = target: T7, Coagulation factor XII (Homo sapiens, UniProt P00748); format: functional;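 note: activated factor XIIa alpha cleaving a fluorogenic AMC peptide substrate; inhibitor potency from loss of enzyme activity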
T7 sequence (P00748 whole entry): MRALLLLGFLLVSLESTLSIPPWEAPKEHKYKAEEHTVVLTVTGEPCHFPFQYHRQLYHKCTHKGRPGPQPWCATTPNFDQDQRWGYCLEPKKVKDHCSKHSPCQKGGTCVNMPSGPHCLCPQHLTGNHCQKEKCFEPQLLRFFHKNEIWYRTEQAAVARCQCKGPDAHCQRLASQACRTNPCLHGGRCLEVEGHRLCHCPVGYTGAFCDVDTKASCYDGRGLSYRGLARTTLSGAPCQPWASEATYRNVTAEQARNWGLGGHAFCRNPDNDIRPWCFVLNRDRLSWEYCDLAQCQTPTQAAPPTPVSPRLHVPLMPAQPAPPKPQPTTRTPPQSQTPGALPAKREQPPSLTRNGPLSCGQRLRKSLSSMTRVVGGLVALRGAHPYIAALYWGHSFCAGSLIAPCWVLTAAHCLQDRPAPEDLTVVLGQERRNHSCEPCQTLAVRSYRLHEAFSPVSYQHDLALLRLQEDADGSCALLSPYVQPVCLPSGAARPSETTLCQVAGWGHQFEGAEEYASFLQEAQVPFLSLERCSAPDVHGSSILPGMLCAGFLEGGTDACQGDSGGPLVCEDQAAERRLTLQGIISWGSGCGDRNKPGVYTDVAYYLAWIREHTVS

[11] = target: T8, Heat shock factor protein 1 (Mus musculus, UniProt P38532); assay: decrease of HSF1-responsive luciferase luminescence – cell-based, NIH3T3, dose retest, confirmation (AID 2382); format: functional;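 note: NIH3T3 fibroblasts with HSF1-driven luciferase reporter stressed by proteasome inhibitor MG132; luminescence from HSF1-driven luciferase expression after 8 hours of MG132 stress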
T8 sequence (P38532 whole entry): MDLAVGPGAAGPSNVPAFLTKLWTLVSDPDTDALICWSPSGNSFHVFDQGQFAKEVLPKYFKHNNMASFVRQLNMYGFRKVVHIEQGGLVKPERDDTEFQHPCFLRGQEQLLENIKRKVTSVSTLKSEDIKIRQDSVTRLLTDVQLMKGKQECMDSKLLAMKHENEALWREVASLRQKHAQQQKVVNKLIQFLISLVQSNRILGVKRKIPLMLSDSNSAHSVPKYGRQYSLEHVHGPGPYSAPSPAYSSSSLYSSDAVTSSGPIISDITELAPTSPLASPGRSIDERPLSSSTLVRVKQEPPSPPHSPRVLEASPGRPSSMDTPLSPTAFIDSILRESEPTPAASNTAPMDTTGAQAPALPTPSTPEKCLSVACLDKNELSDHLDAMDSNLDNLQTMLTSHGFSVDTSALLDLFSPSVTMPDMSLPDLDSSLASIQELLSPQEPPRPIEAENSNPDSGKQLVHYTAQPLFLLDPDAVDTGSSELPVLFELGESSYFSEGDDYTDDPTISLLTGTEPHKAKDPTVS

[12] = alpha-synuclein stem-loop luciferase translation blockers – H4 neuroglioma cells, luminescence, confirmation (AID 1988); format: functional, cell-based
[13] = luciferase reporter signal suppression in cells – H4 neuroglioma cells, luminescence, dose response (AID 1990); format: functional, cell-based
[14] = Luminescence Cell-Based Dose Response HTS to Identify Inhibitors of 5'UTR Stem-Loop Driven Prion Protein mRNA Translation in H4 Neuroglioblastoma Cells. [Related pubchem assays: 1827 (Project Summary), 1813 (Primary HTS)]; format: functional
[15] = A cytotoxicity screen of small molecule inhibitors of the PhoP region in Salmonella typhi identified in the primary screen. [Related pubchem assays: 1850, 1864, 1985 ]; format: functional

Chain of Genome polyprotein (P29990 2492-3391 limits assumed): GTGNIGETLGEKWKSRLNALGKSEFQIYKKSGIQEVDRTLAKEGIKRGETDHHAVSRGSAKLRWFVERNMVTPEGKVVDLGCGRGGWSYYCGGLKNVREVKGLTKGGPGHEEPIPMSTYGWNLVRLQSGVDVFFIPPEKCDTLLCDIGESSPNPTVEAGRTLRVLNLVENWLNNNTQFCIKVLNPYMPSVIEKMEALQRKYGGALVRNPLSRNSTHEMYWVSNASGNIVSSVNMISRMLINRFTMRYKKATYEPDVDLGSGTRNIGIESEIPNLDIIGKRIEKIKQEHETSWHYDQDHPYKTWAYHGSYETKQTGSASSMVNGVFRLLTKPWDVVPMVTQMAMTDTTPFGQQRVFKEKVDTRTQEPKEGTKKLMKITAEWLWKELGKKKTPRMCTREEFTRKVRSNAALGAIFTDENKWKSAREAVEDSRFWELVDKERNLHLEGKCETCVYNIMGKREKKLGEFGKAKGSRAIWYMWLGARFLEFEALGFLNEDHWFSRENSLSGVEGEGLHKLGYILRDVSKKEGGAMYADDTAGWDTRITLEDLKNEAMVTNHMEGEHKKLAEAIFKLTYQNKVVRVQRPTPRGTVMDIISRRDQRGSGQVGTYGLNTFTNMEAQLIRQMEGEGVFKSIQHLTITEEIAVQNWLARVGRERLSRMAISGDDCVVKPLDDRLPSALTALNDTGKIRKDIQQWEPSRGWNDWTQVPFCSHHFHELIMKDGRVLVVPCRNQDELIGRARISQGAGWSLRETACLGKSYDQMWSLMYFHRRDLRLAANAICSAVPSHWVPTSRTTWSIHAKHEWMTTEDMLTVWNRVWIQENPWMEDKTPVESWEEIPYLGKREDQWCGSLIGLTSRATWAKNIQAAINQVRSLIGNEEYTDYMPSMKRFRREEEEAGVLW

SMILES: CN(C)CCNC(=O)c1cccc2nc3c(ccc4ccccc43)nc12
- AC50 [1]: 0.501 µM (active)

SMILES: O=C(O)c1ccc(COc2ccccc2/C=C2\NC(=O)N(Cc3ccc(F)cc3)C2=O)cc1
- IC50 [2]: 6.42 µM (active)

SMILES: CCOc1cc(/C=N/NC2=NC(=O)C(CC(=O)O)S2)ccc1OCc1ccc(Cl)cc1 (stereo not drawn)
- IC50 [2]: 7.12 µM (active)
- IC50 (Genome polyprotein): 47.9 µM (active)

SMILES: COc1ccccc1NC(=O)Cn1cnc2c(oc3nc4c(cc32)CCCC4)c1=O
- AC50 [3]: 77.8 µM (active)

SMILES: CC(C)(C)NC(=O)C(c1ccnc2ccccc12)n1c(=O)c(-c2ccco2)nc2ccccc21 (stereo not drawn)
- IC50 [4]: 3.18 µM (active)

SMILES: CN(C)c1ccc(/C=C2/C(=O)N(CCc3ccc(F)cc3)C(=O)N=C2O)cc1
- AC50 [3]: 23.4 µM (active)

SMILES: CCN(CC)CCCN(C(=O)c1ccc(OC)cc1)c1nc(-c2ccc(OC)cc2)cs1
- AC50 [1]: 18.1 µM (active)

SMILES: Cc1cccc(-c2ccc3c(c2)C2CC3CCN2)c1 (stereo not drawn)
- AC50 [5]: 4.64 µM (active)

SMILES: Cc1cc(Cl)c(S(=O)(=O)NC(C(=O)O)c2ccccc2)cc1OCC(N)=O (stereo not drawn)
- IC50 [2]: 12.9 µM (active)

SMILES: CCc1c(C)nc2ncnn2c1Nc1ccc(C#N)c(Cl)c1
- AC50 [5]: 10.5 µM (active)

SMILES: O=C(c1ccc(Cl)cc1)c1cc([N+](=O)[O-])ccc1N1CCOCC1
- IC50 [6]: > 80 µM (inactive)
- EC50 (BJ [7]): 1.51 µM (active)
- IC50 (Protein skinhead-1): 56.9 µM (inactive)
- EC50 (BJ [8]): 1.19 µM (inconclusive)
- EC50 (BJ [9]): 19 µM (active)
- EC50 [10]: 1.17 µM (active)

SMILES: O=C(NCc1ccccc1)C(c1cccc2ccccc12)n1c(=O)c(-c2ccco2)nc2ccccc21 (stereo not drawn)
- IC50 [4]: 2.77 µM (active)

SMILES: CC1=C(C(=O)Nc2ccc(C)cc2)C(c2ccc(C)o2)C2=C(O)CC(C)(C)CC2=N1 (stereo not drawn)
- IC50 (Coagulation factor XII): > 50 µM (inactive)
- EC50 [11]: > 195 µM (not active)

SMILES: O=C(Nc1ccccc1)N1CCN(Cc2ccc3c(c2)OCO3)CC1
- AC50 [5]: 2.63 µM (active)

SMILES: Cc1nc(Nc2nc(O)c3c(n2)CCC3)nc2ccccc12
- IC50 [6]: > 80 µM (inactive)
- EC50 [12]: 9.61 µM (active)
- EC50 [13]: > 120 µM (not active)
- EC50 [14]: > 120 µM (not active)

SMILES: Oc1c(C(c2ccccc2)N2CCCCC2)ccc2ccccc12 (stereo not drawn)
- IC50 [4]: 0.828 µM (active)

SMILES: Cc1c(C)n(C)c2ccc(C(=O)NCc3cccs3)cc12
- EC50 [15]: > 50 µM (active)
- AC50 [3]: 56.8 µM (active)
